From patent publication US4748161A, “Triterpenyl esters of organic acids and hypolipidemic agents composed of them” (Amano Pharmaceutical Co., Ltd., priority 1984, dated 1988)

Tested on: serum lipids and serum lipid hydroperoxide
Test: Pharmacological test method A for anti-hyperlipidemic activity (serum lipids, 2 weeks feeding)
Type: in vivo, male Wistar strain rats
Settings: for AI [(TC - HDL-C)/(HDL-C)] / HDL-C in serum / LPO in serum / PL in serum / TC in serum / TG in serum: 1% in hyperlipidemic diet, 2 weeks; for AI % of diff. / AI Diff. / HDL-C % of diff. / HDL-C Diff. / LPO % of diff. / LPO Diff. / PL % of diff. / PL Diff. / TC % of diff. / TC Diff. / TG % of diff. / TG Diff.: versus control group
How it was run: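 Serum TC, HDL-C (heparin precipitation), PL, TG and LPO measured by colorimetric kits, largely at 500 nm, from abdominal aorta blood after 16 h fasting. Rats (male Wistar, 10/group) ate a cholesterol/cholic acid diet 10 g/day for 2 weeks, supplemented with 1% each of three cycloartane triterpenoids.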

| SMILES | AI [(TC - HDL-C)/(HDL-C)] | HDL-C in serum | LPO in serum | PL in serum | TC in serum | TG in serum | AI % of diff. | AI Diff. | HDL-C % of diff. | HDL-C Diff. | LPO % of diff. | LPO Diff. | PL % of diff. | PL Diff. | TC % of diff. | TC Diff. | TG % of diff. | TG Diff. |
| --- | --- | --- | --- | --- | --- | --- | --- | --- | --- | --- | --- | --- | --- | --- | --- | --- | --- | --- |
| C=C(CCC(C)C1CCC2(C)C3CCC4C(C)(C)C(OC(=O)c5cccc(N)c5)CCC45CC35CCC12C)C(C)C (centres unmarked) [Example 100, 24-Methylenecyloartanyl ester of m-aminobenzoic acid] | 0.766 | 90.1 mg/dL | 1.68 nmol/mL | 155.6 mg/dL | 159.1 mg/dL | 34.3 mg/dL | -37.3% | -0.456 | +4.2% | +3.6 mg/dl | -25.2% | -0.56 nmol/mL | -10.2% | -17.6 mg/dL | -17.2% | -33.1 mg/dL | -5.5% | -2.0 mg/dL |
| CC(=O)Nc1ccc(C(=O)OC2CCC34CC35CCC3(C)C(C(C)CCC=C(C)C)CCC3(C)C5CCC4C2(C)C)cc1 (centres unmarked) [Example 20, cycloartenyl-p-acetamidobenzoate] | 0.867 | 90.4 mg/dL | 2.02 nmol/mL | 143.3 mg/dL | 168.8 mg/dL | 35.2 mg/dL | -29.1% | -0.355 | +4.5% | +3.9 mg/dl | -9.7% | -0.22 nmol/mL | -17.0% | -29.3 mg/dL | -12.2% | -23.4 mg/dL | -3.0% | -1.1 mg/dL |
| CCOc1cc(C=CC(=O)OC2CCC34CC35CCC3(C)C(C(C)CCC(C)=C(C)C)CCC3(C)C5CCC4C2(C)C)ccc1O (centres unmarked) [Example 71, cyclobranyl-3-ethoxy-4-hydroxycinnamate] | 0.523 | 106.0 mg/dL | 1.96 nmol/mL | 157.7 mg/dL | 161.4 mg/dL | 32.9 mg/dL | -47.8% | -0.479 | +10.2% | +9.8 mg/dl | -15.9% | -0.37 nmol/mL | -12.8% | -23.2 mg/dL | 16.2% | -31.2 mg/dL | -2.8% | -0.9 mg/dL |
| CC(C)=C(C)CCC(C)C1CCC2(C)C3CCC4C(C)(C)C(OC(=O)C=Cc5ccc(N)cc5)CCC45CC35CCC12C (centres unmarked) [Example 104, cyclobranyl ester of p-aminocinnamic acid] | 3.205 | 48.7 mg/dL | 2.01 nmol/mL | 143.7 mg/dL | 204.8 mg/dL | 27.4 mg/dL | -59.1% | -4.635 | +32.0% | +11.8 mg/dl | -28.2% | -0.79 nmol/mL | -13.2% | -21.9 mg/dL | -37.2% | -121.4 mg/dL | -19.4% | -6.6 mg/dL |
| CC(C)=C(C)CCC(C)C1CCC2(C)C3CCC4C(C)(C)C(OC(=O)c5ccc(O)cc5)CCC45CC35CCC12C (centres unmarked) [Example 58, cyclobranyl-p-hydroxybenzoate] | 1.318 | 62.0 mg/dL | 1.82 nmol/mL | 121.3 mg/dL | 143.7 mg/dL | 26.8 mg/dL | -25.4% | -0.449 | +3.0% | +1.8 mg/dl | -28.1% | -0.71 nmol/mL | -11.3% | -15.4 mg/dL | -13.7% | -22.9 mg/dL | -1.5% | -0.4 mg/dL |
| CC(C)=C(C)CCC(C)C1CCC2(C)C3CCC4C(C)(C)C(OC(=O)c5ccc(N)cc5)CCC45CC35CCC12C (centres unmarked) [Example 43, cyclobranyl-p-aminobenzoate] | 0.713 | 91.9 mg/dL | 1.54 nmol/mL | 146.0 mg/dL | 157.4 mg/dL | 33.3 mg/dL | -41.7% | -0.509 | +6.2% | +5.4 mg/dl | -31.3% | -0.70 nmol/mL | -15.4% |  | -18.1% | -34.8 mg/dL | -8.2% | -3.0 mg/dL |
| CCOc1cc(C(=O)OC2CCC34CC35CCC3(C)C(C(C)CCC=C(C)C)CCC3(C)C5CCC4C2(C)C)ccc1O (centres unmarked) [Example 60, cycloartenyl-3-ethoxy-4-hydroxybenzoate] | 0.609 | 102.5 mg/dL | 1.98 nmol/mL | 161.4 mg/dL | 164.9 mg/dL | 32.8 mg/dL | -39.2% | -0.393 | +6.5% | +6.3 mg/dl | -15.0% | -0.35 nmol/mL | -10.8% | -19.5 mg/dL | 14.4% | -27.7 mg/dL | -1.2% | -0.4 mg/dL |
| COc1cc(C=CC(=O)OC2CCC34CC35CCC3(C)C(C(C)CCC=C(C)C)CCC3(C)C5CCC4C2(C)C)ccc1O (centres unmarked) [Example 100-1, cycloartenyl-4-hydroxy-3-methoxycinnamate] | 1.204 | 79.1 mg/dL | 1.51 nmol/mL | 150.0 mg/dL | 174.3 mg/dL | 28.3 mg/dL | -20.6% | -0.313 | -3.0% | -2.4 mg/dL | -33.5% | -0.76 nmol/mL | -13.3% | -23.1 mg/dL | -15.0% | -30.8 mg/dL | -17.6% | -6.0 mg/dL |
| CC(C)=CCCC(C)C1CCC2(C)C3CCC4C(C)(C)C(OC(=O)c5cccc(O)c5)CCC45CC35CCC12C (centres unmarked) [Example 12, cycloartenyl-m-hydroxybenzoate] | 1.571 | 58.5 mg/dL | 2.03 nmol/mL | 140.4 mg/dL | 150.4 mg/dL | 24.0 mg/dL | -14.9% | -0.276 | -0.3% | -0.2 mg/dL | -13.2% | -0.31 nmol/mL | -5.4% | -8.0 mg/dL | -10.0% | -16.7 mg/dL | -3.2% | -0.8 mg/dL |
